Test results reported in patent publication EP4772500A1, “NOVEL ISOXAZOLE COMPOUND AS TM4SF5-SPECIFIC INHIBITOR AND USE THEREOF” (Seoul National University R&DB Foundation, priority 2023, dated 2025).
“And” between values parts separate entries of the source, which are not always exact repeats. Identical values can stand only once.

Target: T1, HA-TM4SF5 obtained from Huh7KO-HA-TM4SF5 (Homo sapiens, UniProt O14894)
T1 construct: expressed in transfected cells; host or cells: Huh7KO (TM4SF5 knockout Huh7) stably infected with pBabe-HA-TM4SF5 retrovirus; captured with anti-HA antibody
T1 sequence (O14894 1-197): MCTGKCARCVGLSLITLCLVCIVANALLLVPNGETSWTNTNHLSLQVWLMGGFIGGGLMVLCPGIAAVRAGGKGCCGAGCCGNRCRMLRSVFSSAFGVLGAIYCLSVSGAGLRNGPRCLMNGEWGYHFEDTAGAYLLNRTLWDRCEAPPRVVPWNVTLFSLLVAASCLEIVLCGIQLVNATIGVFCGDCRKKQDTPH
Assay: Binding of 14C-labelled ST-5-002 to pulled-down HA-TM4SF5
Procedure: For Huh7KO cells, stable cell lines were established by infecting with a retrovirus inducing the expression of pBabe-HA-EV or pBabe-HA-TM4SF5. Cell extracts were obtained, and extracts containing 0.2 or 0.25 mg of protein were reacted with an anti-HA antibody and HA-tagged TM4SF5, or with streptavidin agarose resin for Strep-PD-L1 or Strep-TM4SF5 at 4°C for 2 hours for pulldown. Subsequently, in the presence or absence of cold ST-5-002 (400 µM), the samples were treated with ^14C-labelled ST-5-002 (10 or 25 µM) and reacted at 4°C for 1 hour, after which radioactive isotope values were repeatedly measured using a TriCarb scintillation counter (PerkinElmer, Waltham, MA).
After culturing HEK293FT cells transfected with Strep-EV or Strep-TM4SF5 expression vectors, or Huh7KO cells stably expressing pBabe-HA-EV or pBabe-HA-TM4SF5, cell extracts were obtained. […] The pulled-down proteins were treated with ^14C-labelled ST-5-002 at various concentrations (10 nM, 100 nM, 1 µM, 5 µM, 10 µM, 50 µM) and reacted at 4°C for 1 hour, after which radioactive isotope values were repeatedly measured using a TriCarb scintillation counter (PerkinElmer, Waltham, MA). The EC50 was calculated by normalizing the average radioactive isotope value of TM4SF5 obtained through the measurements by dividing it by the average value of EV. […]

## Cc1ccc(C(=O)Nc2ccc(-c3cc(-c4ccc(O)cc4)no3)cc2)cc1 [ST-5-002, N-(4-(3-(4-hydroxyphenyl)isoxazole-5-yl)phenyl)-4-methylbenzamide]
14C-labelled ST-5-002, HA-TM4SF5, 4°C, 1 hour (FIG. 19b)
  EC50: 0.85 µM and 0.875 µM
Simultaneous treatment with cold ST-5-002 (400 µM) (FIG. 19b)
  binding of 14C-labelled ST-5-002 to HA-TM4SF5: decreased
